Experimental data from patent US9669034B2, “4-aryl-N-phenyl-1,3,5-triazin-2-amines containing a sulfoximine group” (BAYER INTELLECTUAL PROPERTY GMBH, priority 2011, dated 2017).
In brackets after ≈: the same amount, converted by molar mass. Where two headings read alike, the source gives them in different places.

How the values were obtained:
CDK9/CycT1 = CDK9/CycT1 (Homo sapiens (Human), UniProt P50750); experiment: CDK9/CycT1 kinase assay (TR-FRET); assay type: biochemical; conditions: Method 1
Outline: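 TR-FRET read-out of kinase inhibition, with a biotin-Ttds-tagged peptide as substrate. Enzyme: human CDK9 and CycT1, full-length with His tags, produced in insect cells and purified on Ni-NTA.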

CDK2/CycE = CDK2/CycE (Homo sapiens (Human), UniProt P24941); experiment: CDK2/CycE kinase assay (TR-FRET); assay type: biochemical; conditions: Method 2
Outline: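 TR-FRET measurement of inhibition of phosphorylation of a biotinylated peptide substrate. Enzyme complex consisted of human CDK2 and CycE, each as a GST fusion made in Sf9 cells and purified over glutathione-Sepharose.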

[1] = Equilibrium shake flask solubility assay; assay type: physicochemical; conditions: pH 6.5, equilibrium shake flask method; for solubility thermodynamic at 24 h: phosphate buffer, pH 6.5, aqueous buffer, thermodynamic from solid, water
Protocol: 4. Equilibrium Shake Flask Solubility Assay:
The thermodynamic solubility of compounds in water was determined by an equilibrium shake flask method (see for example: E. H. Kerns, L. Di: Drug-like Properties: Concepts, Structure Design and Methods, 276-286, Burlington, Mass., Academic Press, 2008). A saturated solution of the drug was prepared and the solution was mixed for 24 h to ensure that equilibrium was reached. The solution was centrifuged to remove the insoluble fraction and the concentration of the compound in solution was determined using a standard calibration curve.
To prepare the sample, 2 mg solid compound was weighed in a 4 mL glass vial. 1 mL phosphate buffer pH 6.5 was added. The suspension was stirred for 24 hrs at room temperature. The solution was centrifuged afterwards. To prepare the sample for the standard calibration, 2 mg solid sample was dissolved in 30 mL acetonitrile. After sonification the solution was diluted with water to 50 mL. Sample and standards were quantified by HPLC with UV-detection. For each sample two injection volumes (5 and 50 μl) in triplicates were made. Three injection volumes (5 μl, 10 μl and 20 μl) were made for the standard.
Chromatographic Conditions:
The areas of sample- and standard injections as well as the calculation of the solubility value (in mg/l) were determined by using HPLC software (Waters Empower 2 FR).

[2] = test system: HeLa human cervical tumour cells; experiment: Proliferation assay (crystal violet), HeLa; assay type: cell-based; conditions: Method 3, read-out: Inhibition of HeLa cell proliferation, IC50
Outline: (§1)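 First, plate 3000 (NCI-H460, HeLa), 5000 (HeLa-MaTu-ADR) or 1500 (Caco-2) cells per well; next day, fix and stain a reference plate while the others get fresh medium containing compound at […] with 0.5% DMSO; after 4 days, fix, stain with crystal violet and read at 595 nm.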

[3] = test system: HeLa-MaTu-ADR, multidrug-resistant human cervical carcinoma cells; experiment: Proliferation assay (crystal violet), HeLa-MaTu-ADR; assay type: cell-based; conditions: Method 3, read-out: Inhibition of HeLa/MaTu/ADR cell proliferation, IC50
Outline: as §1

[4] = test system: NCI-H460, human non-small cell lung carcinoma cells; experiment: Proliferation assay (crystal violet), NCI-H460; assay type: cell-based; conditions: Method 3, read-out: Inhibition of NCI-H460 cell proliferation, IC50
Outline: as §1

[5] = test system: DU145, hormone-independent human prostate carcinoma cells; experiment: Proliferation assay (crystal violet), DU145; assay type: cell-based; conditions: Method 3, read-out: Inhibition of DU145 cell proliferation, IC50
Outline: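 Proliferation of DU145 cells was measured with crystal violet. Cells were fixed with 20 μL 11% glutaric aldehyde for 15 minutes, washed, dried, stained with 100 μL 0.1% crystal violet (pH 3.0), washed again, and the dye was dissolved in 10% acetic acid. Absorbance at 595 nm was normalized to the zero-point plate and untreated cells, and IC50 came from a 4 parameter fit.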

[6] = test system: Caco-2 human colorectal carcinoma; experiment: Proliferation assay (crystal violet), Caco-2; assay type: cell-based; conditions: Method 3, read-out: Inhibition of Caco-2 cell proliferation, IC50
Outline: as §1

[7] = test system: B16F10 mouse melanoma cells; experiment: Proliferation assay (crystal violet), B16F10; assay type: cell-based; conditions: Method 3, read-out: Inhibition of B16F10 cell proliferation, IC50
Outline: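 Proliferation was read out by crystal violet staining. Cells were fixed for 15 minutes at room temperature with 20 μL of 11% glutaric aldehyde, washed three times with water, dried, and stained with 100 μL of 0.1% crystal violet (pH 3.0). After washing and drying, the dye was dissolved in 100 μL of 10% acetic acid and absorbance measured at 595 nm. Values were normalized to the zero-point plate (0%) and untreated cells (100%), and IC50 was obtained by a 4 parameter fit.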

[8] = Homo sapiens, NCI-H460, NCI-H460 cells
[9] = Homo sapiens, DU-145, DU145 cells
[10] = Homo sapiens, Caco-2, Caco-2 cells
[11] = Mus musculus, B16-F10, B16F10 cells

Sequence of CDK9/CycT1 (P50750 whole entry): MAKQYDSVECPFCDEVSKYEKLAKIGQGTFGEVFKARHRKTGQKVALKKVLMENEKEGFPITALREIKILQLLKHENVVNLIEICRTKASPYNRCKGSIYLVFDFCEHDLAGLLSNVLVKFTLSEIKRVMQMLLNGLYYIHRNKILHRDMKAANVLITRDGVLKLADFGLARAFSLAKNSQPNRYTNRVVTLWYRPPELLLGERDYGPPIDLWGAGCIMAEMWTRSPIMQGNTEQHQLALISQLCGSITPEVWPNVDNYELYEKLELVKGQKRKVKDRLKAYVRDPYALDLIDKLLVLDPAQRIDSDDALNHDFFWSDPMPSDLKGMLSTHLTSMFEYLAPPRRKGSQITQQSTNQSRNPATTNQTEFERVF
Sequence of CDK9/CycT1 (O60563 whole entry partner): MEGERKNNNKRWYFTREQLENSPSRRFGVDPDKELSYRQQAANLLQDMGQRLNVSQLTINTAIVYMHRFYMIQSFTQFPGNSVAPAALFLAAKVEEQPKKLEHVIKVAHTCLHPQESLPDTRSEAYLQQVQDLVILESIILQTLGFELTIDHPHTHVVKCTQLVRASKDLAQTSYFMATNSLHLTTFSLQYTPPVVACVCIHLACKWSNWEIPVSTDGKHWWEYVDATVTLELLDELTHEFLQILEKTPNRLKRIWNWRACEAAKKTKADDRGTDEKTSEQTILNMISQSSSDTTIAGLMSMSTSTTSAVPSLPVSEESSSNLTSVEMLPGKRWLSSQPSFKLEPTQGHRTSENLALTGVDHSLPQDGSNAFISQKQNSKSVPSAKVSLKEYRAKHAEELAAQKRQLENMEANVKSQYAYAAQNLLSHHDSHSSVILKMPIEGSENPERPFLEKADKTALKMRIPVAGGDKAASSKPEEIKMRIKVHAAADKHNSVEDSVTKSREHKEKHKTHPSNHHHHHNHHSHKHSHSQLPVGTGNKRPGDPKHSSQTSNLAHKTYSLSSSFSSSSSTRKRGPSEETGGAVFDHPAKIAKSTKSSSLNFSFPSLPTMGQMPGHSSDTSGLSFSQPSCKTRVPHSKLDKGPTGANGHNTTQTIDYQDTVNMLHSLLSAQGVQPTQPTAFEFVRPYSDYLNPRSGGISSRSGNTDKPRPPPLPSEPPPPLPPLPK

Row | Compound | IC50 (CDK9/CycT1) [nM] | IC50 (CDK2/CycE) [nM] | solubility thermodynamic at 24 h [1] [µg/mL] | IC50 ([2]; Homo sapiens, HeLa) [nM] | IC50 ([3]; Homo sapiens, HeLa) [nM] | IC50 [4, 8] [nM] | IC50 [5, 9] [nM] | IC50 [6, 10] [nM] | IC50 [7, 11] [nM] | also measured
1 | COc1ccc(F)cc1-c1ncnc(Nc2cccc(CS(C)(=N)=O)c2)n1 (single isomer, unassigned) [Example 22, 4-(5-Fluoro-2-methoxyphenyl)-N-{3-[(S-methylsulfonimidoyl)methyl]phenyl}-1,3,5-triazin-2-amine] | 91 | 2800 | 787 (≈ 2030 µM) |  |  |  |  |  |  | 
2 | CS(=N)(=O)Cc1cccc(Nc2ncnc(-c3cccc4c3OCCC4)n2)c1 (single isomer, unassigned) [Example 31, 4-(3,4-Dihydro-2H-chromen-8-yl)-N-{3-[(S-methylsulfonimidoyl)methyl]phenyl}-1,3,5-triazin-2-amine] |  | 670 | 1000 (≈ 2530 µM) |  |  |  |  |  |  | 
3 | COc1cc(F)ccc1-c1ncnc(Nc2cc(F)cc(CS(C)(=N)=O)c2)n1 (single isomer, unassigned) [Example 54, 4-(4-Fluoro-2-methoxyphenyl)-N-{3-fluoro-5-[(S-methylsulfonimidoyl)methyl]phenyl}-1,3,5-triazin-2-amine] |  | 850 | 120 (≈ 296 µM) |  |  |  |  |  |  | 
4 | CS(=N)(=O)Cc1cccc(Nc2ncnc(-c3cccc4c3OCCC4)n2)c1 (single isomer, unassigned) [Example 32, 4-(3,4-Dihydro-2H-chromen-8-yl)-N-{3-[(S-methylsulfonimidoyl)methyl]phenyl}-1,3,5-triazin-2-amine] |  | 1600 |  |  |  |  |  |  |  | Thermodynamic solubility in water at pH 6.5 [1]: 1000 mg/l
5 | COc1ccc(F)cc1-c1ncnc(Nc2cccc(CS(C)(=N)=O)c2)n1 (single isomer, unassigned) [Example 23, 4-(5-Fluoro-2-methoxyphenyl)-N-{3-[(S-methylsulfonimidoyl)methyl]phenyl}-1,3,5-triazin-2-amine] | 110 | 5600 |  |  |  |  |  |  |  | Thermodynamic solubility in water at pH 6.5 [1]: 888 mg/l
6 | CS(=N)(=O)Cc1cccc(Nc2ncnc(-c3ccc(F)cc3OCc3ccnc(F)c3)n2)c1 (single isomer, unassigned) [Example 84, 4-{4-Fluoro-2-[(2-fluoropyridin-4-yl)methoxy]phenyl}-N-{3-[(S-methylsulfonimidoyl)methyl]phenyl}-1,3,5-triazin-2-amine] | 3 | 220 |  |  |  |  |  |  |  | IC50 [2]: 120 nM; IC50 [3]: 340 nM; IC50 ([4]; NCI-H460 cells): 180 nM; IC50 ([5]; DU145 cells): 180 nM; IC50 ([6]; Caco-2 cells): 180 nM; IC50 ([7]; B16F10 cells): 210 nM
7 | CS(=N)(=O)Cc1cccc(Nc2ncnc(-c3ccc(F)cc3OCc3ccc(Cl)cc3)n2)c1 (racemic) [Example 87, (rac)-4-{2-[(4-Chlorobenzyl)oxy]-4-fluorophenyl}-N-{3-[(S-methylsulfonimidoyl)methyl]phenyl}-1,3,5-triazin-2-amine] | 3 | 680 |  | 560 | 450 | 570 | 610 | 800 | 590 | 
8 | CCOC(=O)N=S(C)(=O)Cc1cccc(Nc2ncnc(-c3cccc4c3OCCC4)n2)c1 (racemic) [Example 29, (rac)-Ethyl [(3-{[4-(3,4-dihydro-2H-chromen-8-yl)-1,3,5-triazin-2-yl]amino}benzyl)(methyl)oxido-λ^6-sulfanylidene]carbamate] | 13 | 1200 |  | 510 | 760 | 720 | 540 | 760 | 960 | 
9 | CS(=N)(=O)Cc1cccc(Nc2ncnc(-c3ccc(F)cc3OCc3cccc(C#N)c3)n2)c1 (racemic) [Example 98, (rac)-3-({5-Fluoro-2-[4-({3-[(S-methylsulfonimidoyl)methyl]phenyl}amino)-1,3,5-triazin-2-yl]phenoxy}methyl)benzonitrile] | 3 | 180 |  | 140 | 260 | 120 | 120 | 150 | 130 | 
